US20020137929A1, “1 - (3-heterocyclylphenyl) isothiourea, -isourea, -guanidine and -amidine herbicidal agents” (Intellectual Property Department, BASF Aktiengesellschaft, priority 1998, published 2002)

Experiments:
[1] = test system: ABUTH (Velvetleaf); assay: Preemergence herbicidal evaluation; assay type: in vivo, Abutilon theophrasti; conditions: rated 4-5 weeks after treatment, rating scale 0-9
In short: (§1)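 Seeds were mixed with potting soil and planted on about one inch of soil, then sprayed with test compound in aqueous acetone at about 0.0156 to 0.500 kg per hectare. Plants grew under standard greenhouse care and were visually rated 0-9 against untreated controls 4-5 weeks post-treatment.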

[2] = test system: TRZAWR (Wheat, Winter, cv Riband); assay: Preemergence herbicidal evaluation; assay type: in vivo, Triticum aestivum; conditions: rated 4-5 weeks after treatment, rating scale 0-9
In short: as §1

[3] = test system: ECHORC (Watergrass (Calif.)); assay: Preemergence weed control under flooded paddy conditions; assay type: in vivo, Echinochloa oryzoides; conditions: rated 3-4 weeks after treatment
In short: (§2)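 Seeds or propagules sown in top 0.5 cm of silt loam soil, flooded 1.5 to 3 cm above surface throughout. Compound in 50/50 v/v aqueous/acetone pipetted into flood water at about 0.0313 to 0.500 kg/ha. Visual 0-9 rating versus control after three to four weeks in greenhouse.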

[4] = test system: CYPIR (Rice Flatsedge); assay: as above; assay type: in vivo, Cyperus iria; conditions: rated 3-4 weeks after treatment
In short: as §2

[5] = test system: SAGPY (Arrowhead (Pygmaea)); assay: as above; assay type: in vivo, Sagittaria pygmaea; conditions: rated 3-4 weeks after treatment
In short: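 Using flooded silt loam (water 1.5 to 3 cm deep), seeds sown in the top 0.5 cm were exposed preemergence to compound pipetted into the flood at about 0.0313 to 0.500 kg/ha. Effects were scored 0-9 by eye three to four weeks later.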

| Compound | Preemergence herbicidal rating ABUTH ([1]; rate 0.0313 kg/ha) | Preemergence herbicidal rating ABUTH ([1]; rate 0.0625 kg/ha) | Preemergence herbicidal rating ABUTH ([1]; rate 0.1250 kg/ha) | Preemergence herbicidal rating ABUTH ([1]; rate 0.2500 kg/ha) | Preemergence herbicidal rating TRZAWR ([2]; rate 0.0313 kg/ha) | Preemergence herbicidal rating TRZAWR ([2]; rate 0.0625 kg/ha) | Preemergence herbicidal rating TRZAWR ([2]; rate 0.1250 kg/ha) | Preemergence herbicidal rating TRZAWR ([2]; rate 0.2500 kg/ha) | herbicidal effect rating, ECHORC ([3]; 0.0313 kg/ha) | herbicidal effect rating, ECHORC ([3]; 0.0625 kg/ha) | herbicidal effect rating, ECHORC ([3]; 0.1250 kg/ha) | herbicidal effect rating, ECHORC ([3]; 0.2500 kg/ha) | herbicidal effect rating, CYPIR ([4]; 0.0313 kg/ha) | herbicidal effect rating, CYPIR ([4]; 0.0625 kg/ha) | herbicidal effect rating, CYPIR ([4]; 0.1250 kg/ha) | herbicidal effect rating, CYPIR ([4]; 0.2500 kg/ha) | herbicidal effect rating, SAGPY ([5]; 0.0313 kg/ha) | herbicidal effect rating, SAGPY ([5]; 0.0625 kg/ha) | herbicidal effect rating, SAGPY ([5]; 0.1250 kg/ha) | herbicidal effect rating, SAGPY ([5]; 0.2500 kg/ha) | other results |
| --- | --- | --- | --- | --- | --- | --- | --- | --- | --- | --- | --- | --- | --- | --- | --- | --- | --- | --- | --- | --- | --- |
| Cc1cccc(CN2C(=O)CSC2=Nc2cc(-n3c(=O)cc(C(F)(F)F)n(C)c3=O)c(F)cc2Cl)c1 [Compound 130, 3-{4-Chloro-2-fluoro-5-{[3-(m-methylbenzyl)-4-oxo-2-thiazolidinylidene]amino}phenyl}-1-methyl-6-(trifluoromethyl)-2,4 (1H, 3H)-pyrimidinedione] | 9.0 | 9.0 | 9.0 | 9.0 | 0.0 | 1.0 | 3.0 | 6.0 | 0.0 | 2.0 | 3.0 | 4.0 | 0.0 | 2.0 | 4.0 | 6.0 | 4.0 | 4.0 | 0.0 | 3.0 | Preemergence herbicidal rating ABUTH ([1]; rate 0.0156 kg/ha): 1.0; Preemergence herbicidal rating TRZAWR ([2]; rate 0.0156 kg/ha): 0.0 |
| COc1cccc(CN2C(=O)CSC2=Nc2cc(-n3c(=O)cc(C(F)(F)F)n(C)c3=O)c(F)cc2Cl)c1 [Compound 137, 3-{4-Chloro-2-fluoro-5-{[3-(m-methoxybenzyl)-4-oxo-2-thiazolidinylidene]amino}phenyl}-1-methyl-6-(trifluoromethyl)-2,4(1H,3H)-pyrimidinedione] |  | 0.0 | 0.0 | 9.0 |  | 0.0 | 0.0 | 0.0 | 3.0 | 3.0 | 3.0 | 5.0 | 3.0 | 2.0 | 2.0 | 4.0 | 0.0 | 0.0 | 0.0 | 3.0 |  |
| COc1ccc(CN2C(=O)CSC2=Nc2cc(-n3c(=O)cc(C(F)(F)F)n(C)c3=O)c(F)cc2Cl)c(OC)c1 [Compound 139, 3-{4-Chloro-5-{[3-(2,4-dimethoxybenzyl)-4-oxo-2-thiazolidinylidene]amino}-2-fluorophenyl}-1-methyl-6-(trifluoromethyl)-2,4(1H,3H)-pyrimidinedione] | 0.0 | 0.0 | 9.0 | 9.0 | 0.0 | 0.0 | 0.0 | 1.0 | 6.0 | 7.0 | 7.0 | 7.0 | 2.0 | 4.0 | 5.0 | 6.0 | 0.0 | 0.0 | 0.0 | 0.0 | Preemergence herbicidal rating ABUTH ([1]; rate 0.0156 kg/ha): 0.0; Preemergence herbicidal rating TRZAWR ([2]; rate 0.0156 kg/ha): 0.0 |
| Cn1c(C(F)(F)F)cc(=O)n(-c2cc(N=C3SCC(=O)N3Cc3cccc(C(F)(F)F)c3)c(Cl)cc2F)c1=O [Compound 142, 3-{4-Chloro-2-fluoro-5-{{3-[m-(trifluoromethyl)benzyl]-4-oxo-2-thiazolidinylidene}-amino}phenyl}-1-methyl-6-(trifluoromethyl)-2,4(1H,3H)-pyrimidinedione] | 1.0 | 1.0 | 4.0 | 9.0 | 0.0 | 0.0 | 0.0 | 0.0 | 4.0 | 5.0 | 7.0 | 7.0 | 0.0 | 2.0 | 6.0 | 7.0 | 0.0 | 0.0 | 0.0 | 2.0 | Preemergence herbicidal rating ABUTH ([1]; rate 0.0156 kg/ha): 0.0; Preemergence herbicidal rating TRZAWR ([2]; rate 0.0156 kg/ha): 0.0 |
| Cn1c(C(F)(F)F)cc(=O)n(-c2cc(N=C3SCC(=O)N3Cc3ccccc3Cl)c(Cl)cc2F)c1=O [Compound 143] | 1.0 | 1.0 | 6.0 | 9.0 | 0.0 | 0.0 | 0.0 | 1.0 | 5.0 | 7.0 | 9.0 | 9.0 | 0.0 | 3.0 | 4.0 | 4.0 | 0.0 | 0.0 | 0.0 | 5.0 |  |
| Cn1c(C(F)(F)F)cc(=O)n(-c2cc(N=C3SCC(=O)N3Cc3ccc(Cl)cc3)c(Cl)cc2F)c1=O [Compound 145, 3-{4-Chloro-5-{[3-(p-chlorobenzyl)-4-oxo-2-thiazolidinylidene]amino}-2-fluorophenyl}-1-methyl-6-(trifluoromethyl)-2,4(1H,3H)-pyrimidinedione] | 2.0 | 3.0 | 9.0 | 6.0 | 1.0 | 1.0 | 0.0 | 1.0 | 6.0 | 6.0 | 7.0 | 7.0 | 4.0 | 5.0 | 7.0 | 9.0 | 0.0 | 2.0 | 5.0 | 5.0 | Preemergence herbicidal rating ABUTH ([1]; rate 0.0156 kg/ha): 0.0; Preemergence herbicidal rating TRZAWR ([2]; rate 0.0156 kg/ha): 0.0 |
| Cc1ccc(CN2C(=O)CSC2=Nc2cc(-n3c(=O)cc(C(F)(F)F)n(C)c3=O)c(F)cc2Cl)cc1C [Compound 147, 3-{4-Chloro-5-{[3-(3,4-dimethylbenzyl)-4-oxo-2-thiazolidinylidene]amino}-2-fluorophenyl}-1-methyl-6-(trifluoromethyl)-2,4(1H,3H)-pyrimidinedione] | 0.0 | 0.0 | 4.0 | 7.0 | 0.0 | 0.0 | 0.0 | 0.0 | 5.0 | 7.0 | 9.0 | 9.0 | 4.0 | 4.0 | 7.0 | 7.0 | 0.0 | 0.0 | 0.0 | 2.0 | Preemergence herbicidal rating ABUTH ([1]; rate 0.0156 kg/ha): 0.0; Preemergence herbicidal rating TRZAWR ([2]; rate 0.0156 kg/ha): 0.0 |
| Cn1c(C(F)(F)F)cc(=O)n(-c2cc(N=C3SCC(=O)N3C3CC3)c(Cl)cc2F)c1=O [Compound 152, 3-{4-Chloro-5-[(3-cyclopropyl-4-oxo-2-thiazolidinylidene)amino]-2-fluorophenyl}-1-methyl-6-(trifluoromethyl)-2,4(1H,3H)-pyrimidinedione] | 0.0 | 0.0 | 9.0 | 9.0 | 0.0 | 1.0 | 1.0 | 1.0 |  | 0.0 | 0.0 | 0.0 |  | 0.0 | 0.0 | 0.0 |  | 0.0 | 0.0 | 0.0 |  |
